# Experiment: Compound solubility in water
# Assay type: physicochemical
row,SMILES,solubility [µg/mL]
1,Cc1cc2ncc(C(=O)Nc3ccc4c(c3)CCC4)n2nc1Cl,1.5
2,Cc1cc(-c2ccc(F)cc2)nn2c(C(=O)N[C@@H](C)C3CC3)nnc12,1
3,Cc1cc(N2CCC(F)(F)C2)nn2c(C(=O)NC(C3CC3)C(F)(F)F)cnc12 (stereo not shown),8.2
4,Cc1cc(C)c2cnc(C(=O)NC3CCCc4ccccc43)n2n1 (stereo not shown),38.4
5,Cc1cc(-c2ccc(F)cc2)nn2c(C(=O)NC(C)(C)C3CC3)ncc12,1.2
6,CCC(NC(=O)c1cnc2c(C)cc(C)nn12)c1ccccc1 (stereo not shown),18.8
7,Cc1cc(-c2cccnc2)nc2c(C(=O)NC(C3CC3)C(F)(F)F)csc12 (stereo not shown),0.5
8,C#Cc1ccc(NC(=O)c2ncc3c(C)cc(C)nn23)cc1,1.8
9,Cc1cc(-c2ccccn2)nc2c(C(=O)NC(C3CC3)C(F)(F)F)nsc12 (stereo not shown),0.7
10,Cc1cc(-c2ccns2)nn2c(C(=O)NC(C)(C)C3CC3)cnc12,6.7
11,Cc1cc(-c2cccc(F)c2)nn2c(C(=O)NC(C)(C)C3CC3)ncc12,8
12,O=C(NC1CCCc2ccccc21)c1cnc2ccc(Cl)nn12 (stereo not shown),17.5
13,Cc1cc2ncc(C(=O)NC3CCCc4ccccc43)n2nc1Cl (stereo not shown),3.6
14,Cc1cc(C)c2ncc(C(=O)Nc3ccc4c(c3)CCC4)n2n1,0.9
15,CCCCCO[C@H]1CC[C@H](NC(=O)c2cnc3c(C)cc(C)nn23)CC1,3.9
16,C#Cc1ccc(NC(=O)c2cnc3ccc(Cl)nn23)cc1,15
17,Cc1cc(C)c2cnc(C(=O)Nc3ccc(-c4cocn4)cc3)n2n1,0.4
18,CCC(NC(=O)c1cnc2ccc(Cl)nn12)c1ccccc1 (stereo not shown),15.4
19,Cc1cc(-c2cccc3ocnc23)nc2c(C(=O)NC(C3CC3)C(F)(F)F)nsc12 (stereo not shown),1.1
20,Cc1cc(-c2cccnc2)nc2c(C(=O)NC(C3CC3)C(F)(F)F)nsc12 (stereo not shown),0.3
21,CCCCCCOC1CCC(NC(=O)c2cnc3cc(C)c(Cl)nn23)CC1 (stereo not shown),16.8
22,O=C(Nc1ccc2c(c1)CCC2)c1cnc2ccc(Cl)nn12,0.7
23,Cc1cc(C)c2ncc(C(=O)NC(C)(C)C3CC3)n2n1,27.3
24,Cc1cc(C)c2scc(C(=O)NC(C3CC3)C(F)(F)F)c2n1 (stereo not shown),0.1

row,SMILES,solubility [µg/mL]
1,Cc1cc(C)c2cnc(C(=O)Nc3ccc4c(c3)CCC4)n2n1,2.1
2,Cc1cc(-c2cccc(C(N)=O)c2)nc2c(C(=O)NC(C3CC3)C(F)(F)F)csc12 (stereo not shown),0.4
3,Cc1cc(N2CCN(C(C)C)C2=O)nn2c(C(=O)NC(C3CC3)C(F)(F)F)cnc12 (stereo not shown),18.3
4,"Cc1cc(-c2cncc(Cl)c2)nn2c(C(=O)N[C@@H](C3CC3)C(F)(F)F)ncc12 [(S)-2-(5-Chloropyridin-3-yl)-N-(1-cyclopropyl-2,2,2-trifluoroethyl)-4-methylimidazo[1,5-b]pyridazine-7-carboxamide]",0.7
5,CCCCCO[C@H]1CC[C@H](NC(=O)c2cnc3ccc(Cl)nn23)CC1,17
6,C#Cc1ccc(NC(=O)c2cnc3c(C)cc(C)nn23)cc1,0.3
7,Cc1cc(-c2cccc(C(N)=O)c2)nc2c(C(=O)NC(C3CC3)C(F)(F)F)nsc12 (stereo not shown),1.4
8,Cc1cc(-c2ccc(F)cc2)nn2c(C(=O)N[C@@H](C)C3CC3)ncc12,6.9
9,Cc1cc(-c2cccnc2)nc2c(C(=O)NC(C)C3CC3)csc12 (stereo not shown),1.4
10,COc1cccc(-c2cc(C)c3ncc(C(=O)NC(C4CC4)C4CC4)n3n2)c1,2.7
11,Cc1cc(C)c2ncc(C(=O)Nc3ccc(-c4cocn4)cc3)n2n1,1.8
12,Cc1cc(C)c2ncc(C(=O)NC3(C)CCCc4ccccc43)n2n1 (stereo not shown),7.2
13,CCCCCCOC1CCC(NC(=O)c2cnc3c(C)cc(Cl)nn23)CC1 (stereo not shown),3.1
14,C#CC(C)(C)NC(=O)c1cnc2c(C)cc(-c3ccns3)nn12,17.2
15,"Cc1cc(-c2cccc(F)c2)nn2c(C(=O)N[C@@H](C3CC3)C(F)(F)F)ncc12 [(S)—N-(1-Cyclopropyl-2,2,2-trifluoroethyl)-2-(3-fluorophenyl)-4-methylimidazo[1,5-b]pyridazine-7-carboxamide]",0.2
16,Cc1cc(C)c2cnc(C(=O)NC(C)(C)C3CC3)n2n1,24
17,Cc1cc(N2CCCC(F)(F)C2)nn2c(C(=O)N[C@@H](C3CC3)C(F)(F)F)cnc12,1.9
18,Cc1cc(-c2ccc(F)cc2)nn2c(C(=O)NC(C3CC3)C(F)(F)F)ncc12 (stereo not shown),0.2
19,CCC(NC(=O)c1ncc2c(C)cc(C)nn12)c1ccccc1 (stereo not shown),29.6
20,Cc1cc(Cl)nn2c(C(=O)Nc3ccc4c(c3)CCC4)cnc12,0.3
21,CCC(NC(=O)c1cnc2cc(C)c(Cl)nn12)c1ccccc1 (stereo not shown),14.6
22,"Cc1cc(-c2cccc(F)c2)nn2c(C(=O)N[C@H](C3CC3)C(F)(F)F)ncc12 [(R)—N-(1-Cyclopropyl-2,2,2-trifluoroethyl)-2-(3-fluorophenyl)-4-methylimidazo[1,5-b]pyridazine-7-carboxamide]",0.2
23,Cc1cc(C)c2ncc(C(=O)NC3CCCc4ccccc43)n2n1 (stereo not shown),8.8

# The remaining lines, values ahead:
row,solubility [µg/mL],SMILES
1,1.3,Cc1cc(-c2ccc3ocnc3c2)nn2c(C(=O)NC(C)C(F)(F)F)cnc12 (stereo not shown)
2,1,Cc1cc(-c2ccc3ocnc3c2)nn2c(C(=O)N[C@H](C)C(F)(F)F)cnc12
3,0.3,Cc1cc(-c2cccc3ncoc23)nn2c(C(=O)NC(C3CC3)C(F)(F)F)cnc12 (stereo not shown)
4,0.2,Cc1cc(-c2cccc(C#N)c2)nn2c(C(=O)NC(C3CC3)C(F)(F)F)cnc12 (stereo not shown)
5,0.5,Cc1cc(-c2ccc3ocnc3c2)nn2c(C(=O)N[C@@H](C3CC3)C(F)(F)F)cnc12
6,3.2,Cc1cc(-c2ccc(F)cc2)nn2c(C(=O)NC(C)C(F)(F)F)ncc12 (stereo not shown)
7,2.6,Cc1cc(-c2ccc(F)cc2C#N)nn2c(C(=O)N[C@@H](C)C3CC3)cnc12
8,1.2,Cc1cc(-c2ccc(F)cc2C#N)nn2c(C(=O)N[C@@H](C3CC3)C(F)(F)F)cnc12
9,1.4,Cc1cc(-c2ccc3ocnc3c2)nn2c(C(=O)NC(C)C3CC3)cnc12 (stereo not shown)
10,2.2,COc1cccc(-c2cc(C)c3ncc(C(=O)NC(C4CC4)C(F)(F)F)n3n2)n1 (stereo not shown)
11,1,"Cc1cc(-c2ccc3ncn(C)c3c2)nn2c(C(=O)N[C@H](C3CC3)C(F)(F)F)cnc12 [(R)—N-(1-Cyclopropyl-2,2,2-trifluoroethyl)-8-methyl-6-(1-methyl-1H-benzo[d]imidazol-6-yl)imidazo[1,2-b]pyridazine-3-carboxamide]"
12,0.7,"C#CC(NC(=O)c1ncc2c(C)cc(-c3cccc(F)c3)nn12)C(F)(F)F (stereo not shown) [2-(3-Fluorophenyl)-4-methyl-N-(1,1,1-trifluorobut-3-yn-2-yl)imidazo[1,5-b]pyridazine-7-carboxamide]"
13,0.7,Cc1cc(-c2occc2C#N)nn2c(C(=O)NC(C3CC3)C(F)(F)F)cnc12 (stereo not shown)
14,0.3,Cc1cc(-c2cncc(Cl)c2)nn2c(C(=O)N[C@@H](C3CC3)C(F)(F)F)cnc12
15,0.1,Cc1cc(-c2ccccc2C#N)nn2c(C(=O)NC(C3CC3)C(F)(F)F)cnc12 (stereo not shown)
16,0.2,Cc1cc(-c2ccc3ocnc3c2)nn2c(C(=O)NC(C3CC3)C(F)(F)F)cnc12 (stereo not shown)
17,0.3,Cc1cc(-c2cncc(Cl)c2)nn2c(C(=O)N[C@H](C3CC3)C(F)(F)F)cnc12
18,3.5,Cc1cc(-c2cccc(Cl)n2)nn2c(C(=O)NC(C)C(F)(F)F)cnc12 (stereo not shown)
19,1.9,Cc1cc(-c2ccc(F)cc2C#N)nn2c(C(=O)N[C@@H](C)C(F)(F)F)cnc12
20,0.6,Cc1cc(-c2ccc(F)o2)nn2c(C(=O)NC(C3CC3)C(F)(F)F)cnc12 (stereo not shown)
21,1.9,Cc1cc(-c2cccc(F)c2)nn2c(C(=O)NC(C)(C)C3CC3)cnc12

row,solubility [µg/mL],SMILES
1,3.9,Cc1cc(-c2ccc(F)cc2C#N)nn2c(C(=O)NC(C)C(F)(F)F)cnc12 (stereo not shown)
2,0.03,Cc1cc(-c2cccc(F)c2)nn2c(C(=O)NC(C3CC3)C(F)(F)F)cnc12 (stereo not shown)
3,0.5,"Cc1cc(-c2cccc(F)c2C#N)nn2c(C(=O)N[C@@H](C)C3CC3)cnc12 [(S)-6-(2-Cyano-3-fluorophenyl)-N-(1-cyclopropylethyl)-8-methylimidazo[1,2-b]pyridazine-3-carboxamide]"
4,1.3,Cc1cc(-c2cncc(F)c2)nn2c(C(=O)NC(C3CC3)C(F)(F)F)cnc12 (stereo not shown)
5,0.9,Cc1cc(-c2ccc(F)cc2)nn2c(C(=O)NC(C)(C)C3CC3)cnc12
6,1.9,Cc1cc(-c2ccc(F)cc2C#N)nn2c(C(=O)N[C@H](C)C(F)(F)F)cnc12
7,4.4,Cc1cc(-c2cccc3ncoc23)nn2c(C(=O)NC(C)C(F)(F)F)cnc12 (stereo not shown)
8,3.6,Cc1cc(-c2cc(C)c3ncc(C(=O)N[C@H](C4CC4)C(F)(F)F)n3n2)sn1
9,1.4,COc1cccc(-c2cc(C)c3ncc(C(=O)NC(C4CC4)C(F)(F)F)n3n2)c1 (stereo not shown)
10,0.5,Cc1cc(-c2ccns2)nn2c(C(=O)NC(C3CC3)C(F)(F)F)cnc12 (stereo not shown)
11,1.5,Cc1nc2cc(-c3cc(C)c4ncc(C(=O)NC(C)C(F)(F)F)n4n3)ccc2o1 (stereo not shown)
12,1.6,Cc1cc(-c2cccc3ocnc23)nn2c(C(=O)NC(C3CC3)C(F)(F)F)cnc12 (stereo not shown)
13,0.7,Cc1cc(-c2ccc(F)cc2C#N)nn2c(C(=O)NC(C3CC3)C(F)(F)F)cnc12 (stereo not shown)
14,1.1,"Cc1cc(-c2cccc(F)c2C#N)nn2c(C(=O)N[C@@H](C)C(F)(F)F)cnc12 [(S)-6-(2-Cyano-3-fluorophenyl)-8-methyl-N-(1,1,1-trifluoropropan-2-yl)imidazo[1,2-b]pyridazine-3-carboxamide]"
15,3,Cc1cc(-c2cccc(F)c2)nn2c(C(=O)NC(C)C(F)(F)F)ncc12 (stereo not shown)
16,1.9,Cc1cc(-c2cccc(F)c2)nn2c(C(=O)NC(C)C(F)(F)F)cnc12 (stereo not shown)
17,6.5,Cc1cc(-c2ccc(F)cc2)nn2c(C(=O)N[C@@H](C)C3CC3)cnc12
18,0.1,Cc1cc(C#N)c(-c2cc(C)c3ncc(C(=O)N[C@@H](C)C(F)(F)F)n3n2)o1
19,1.2,Cc1cc(-c2ccc3ocnc3c2)nn2c(C(=O)N[C@@H](C)C(F)(F)F)cnc12
20,2.3,Cc1cc(-c2ccc(F)cc2C#N)nn2c(C(=O)N[C@H](C)C3CC3)cnc12

# — US9868742B2, “Substituted imidazo[1,2-b]pyridazines, substituted imidazo[1,5-b] pyridazines, related compounds, and their use in the treatment of medical disorders” (Lysosomal Therapeutics Inc., priority 2016, dated 2018)
